{
  "source": "patent US20240382520A1",
  "about": "“COMPOSITION FOR PREVENTING AND TREATING CANCER THROUGH MITOCHONDRIAL METABOLISM REGULATION CONTAINING NANOGRAPHENE STRUCTURE” (SEOUL NATIONAL UNIVERSITY R & DB FOUNDATION, priority 2021, published 2024)",
  "test_system": "colon cancer",
  "assay": "Oral administration in colon cancer model induced with Azoxymethane and Dextran sodium sulfate (DSS)",
  "type": "in vivo, mouse",
  "experimental": "It was determined whether orally administering the nanographene structure or a modified structure thereof has an effect on cancer occurrence and the mitigation of progression in vivo. Specifically, according to Table 1, rats that were not induced with colon cancer (sham group) and rats that were induced with colon cancer and administered with nanographene oxide (danGO group) were used, and rats that were induced with colon cancer were used as a negative control group (vehicle group), and as a positive control group, rats that were administered with 5-fluorouracil (5-FU), which is an anticancer drug, were prepared. In the negative control group, colon cancer was induced by using Azoxymethane and Dextran sodium sulfate (DSS). In the danGO group which was the experimental group, danGO was orally administered at a dose of 250 μg/mouse 5 times every 3 days to rats that were induced with colon cancer.\nIn the same manner as in Example 7-1, the effect of modified nanographene oxide, NGO-NH2, on in vivo cancer occurrence and progression mitigation was confirmed.\nNext, the spleen was separated and the size and weight were measured in order to determine the effect on the degree of systemic inflammation. The spleen is an important lymphoid organ, accounting for about 25% of the body weight of the lymphatic organ. […]",
  "data": [
    {"smiles": "O=c1[nH]cc(F)c(=O)[nH]1", "note": "[5-FU, 5-fluorouracil]", "values": [
      {"measurement": "length of the colon compared to the vehicle group", "setting": "Example 7-1, oral, danGO 250 μg/mouse 5 times every 3 days", "value": "preserved statistically significantly"},
      {"measurement": "alleviation of disease (colon length and diameter) compared to the vehicle group", "setting": "Example 7-2", "value": "significantly alleviated"}
    ]}
  ]
}
